Consider two compounds from US20230392170A1, “BIG-IN: A VERSATILE PLATFORM FOR LOCUS-SCALE GENOME REWRITING AND VERIFICATION” (New York University, priority 2020, published 2023).

“Also recorded” adds a separate entry of the source.

For one data set, the system named is Parental H1 cells. Put plainly: GCV/TK bystander paracrine test: parental cells in medium or LP-TK conditioned medium with GCV. It is filed as cell-based, human. Conditions: 0.1 μM GCV, 7 days, also when preincubated with LP-TK cells (conditioned medium). The method, then: FIG. 8. Development of an efficient counterselection strategy. a, Lack of paracrine activity in GCV/TK bystander effect. Parental H1 cells were grown for 7 days with regular StemFlex medium with or without 0.1 μM GCV or with a 1:1 mixture of regular medium and conditioned medium harvested from LP-TK cells grown with or without 0.1 μM GCV. […] Bars represent mean+S.D. for technical replicates (n=3). b, PCR genotyping for parental (Par), ΔPIGA and LP-PIGA H1 hESCs. Primers target a region of the PIGA gene (WT PIGA), the novel junction formed following PIGA deletion (ΔPIGA), a region of HPRT1 gene (WT HPRT1) and the two novel junctions formed between LP-PIGA and the surrounding genome (LP L and R Jx). c, Proaerolysin-induced cell death. The indicated H1 hESCs were treated with 0.5 nM proaerolysin for 1 day and stained with Crystal Violet. Proaerolysin resistance is conferred by PIGA inactivation and restored by hmPIGA expression. d, Rapid proaerolysin-induced cell death. e, Proaerolysin kill-curve for H1 hESCs and BL6xCAST mESCs. Cells were treated with proaerolysin for 1 day and assayed 3 days (H1) or 1 day (BL6xCAST) post treatment. Experiment was conducted in replicates (H1, n=4; BL6xCAST, n=2) and data are represented as mean±S.D. f, CD59/HLA flow cytometry of H1 hESCs. […]

Data set [1] relates to H1 hESCs. Put plainly: TK/GCV counterselection in co-cultures of TK-negative and TK-positive (LP-TK) cells, live cells by PrestoBlue. The class given is cell-based, human. Conditions: 1 μM GCV for 4 days. The procedure: FIG. 2. Development of an efficient counterselection strategy. a, Parental (TK−) and LP-TK (TK+) H1 hESCs were co-cultured at the indicated ratios, treated with 1 μM, GCV for 4 days, and assayed for the number of live cells using PrestoBlue. Cell counts are shown relative to unmixed parental cells. Bars show mean+S.D. (n=2). b, GCV enters TK+ cells and is metabolized into the toxic membrane-impermeable compound GCV-TP, which diffuses into neighboring cells and induces bystander cell death in TK-cells. c, Big-IN counterselection strategy using PIGA/Proaerolysin. d, Parental and ΔPIGA H1 hESCs co-cultured at the indicated ratios for three days were treated with 1 nM proaerolysin for 1 day and stained with Crystal Violet 3 days later. e, Parental and ΔPiga BL6xCAST mESCs were co-cultured at the indicated ratios for one day, treated with 1 nM proaerolysin for 1 day, stained with Crystal Violet 5 days later, and colonies were counted. Bars represent mean+S.D. (n=2).
Delivery of large DNA through cassette exchange is an infrequent event, requiring selection to obtain practical efficiency. The HSV1-TK gene is a widely used counterselectable marker that renders cells sensitive to GCV by converting it to the toxic metabolite GCV-triphosphate (GCV-TP), which inhibits DNA synthesis and leads to cell death^38. […]

Data set [2] deals with H1 LP-TK hESCs (HSV1-ΔTK). Briefly: GCV kill-curve assay, LP-TK clone 581 vs parental cells, live cells by PrestoBlue. Conditions: indicated GCV concentrations for 3 days.
Description: Bars represent mean+S.D. of technical replicates (n=3). c, H1 LP-TK clone 581 and non-engineered parental H1 hESCs were treated with the indicated concentrations of GCV for 3 days, followed by quantification of live cells using PrestoBlue. Data were normalized to the value of untreated cells.
PrestoBlue (ThermoFisher Scientific A13262) staining was performed according to the manufacturer's protocol.
Data set [3] has as its system H1 hESCs. Put plainly: Proaerolysin-induced cell death, Crystal Violet staining / kill-curve. It is filed as cell-based, human. The method, then:
FIG. 8. Development of an efficient counterselection strategy. a, Lack of paracrine activity in GCV/TK bystander effect. Parental H1 cells were grown for 7 days with regular StemFlex medium with or without 0.1 μM GCV or with a 1:1 mixture of regular medium and conditioned medium harvested from LP-TK cells grown with or without 0.1 μM GCV. […] Bars represent mean+S.D. for technical replicates (n=3). b, PCR genotyping for parental (Par), ΔPIGA and LP-PIGA H1 hESCs. Primers target a region of the PIGA gene (WT PIGA), the novel junction formed following PIGA deletion (ΔPIGA), a region of HPRT1 gene (WT HPRT1) and the two novel junctions formed between LP-PIGA and the surrounding genome (LP L and R Jx). c, Proaerolysin-induced cell death. The indicated H1 hESCs were treated with 0.5 nM proaerolysin for 1 day and stained with Crystal Violet. Proaerolysin resistance is conferred by PIGA inactivation and restored by hmPIGA expression. d, Rapid proaerolysin-induced cell death. e, Proaerolysin kill-curve for H1 hESCs and BL6xCAST mESCs. Cells were treated with proaerolysin for 1 day and assayed 3 days (H1) or 1 day (BL6xCAST) post treatment. Experiment was conducted in replicates (H1, n=4; BL6xCAST, n=2) and data are represented as mean±S.D. f, CD59/HLA flow cytometry of H1 hESCs. Note the complete loss of CD59, a GPI-anchored protein, in ΔPIGA cells, and the retention of HLA, a non-GPI-anchored membranal protein. g, Flow cytometry of H1 hESCs showing the reconstitution of CD59 expression in LP-PIGA cells.
Integration of a landing pad expressing a human mini PIGA gene (hmPIGA) to the HPRT1 locus resensitized H1 ΔPIGA hESCs to proaerolysin and restored CD59 expression (FIG. 7c, FIG. 7g). Importantly, rare ΔPIGA H1 hESCs were efficiently isolated when co-cultured with parental H1 cells by applying proaerolysin selection (FIG. 2d). Similarly, the Piga/proaerolysin counterselection strategy was used to efficiently isolate rare mESCs (FIG. 2e).

As for `Nc1nc(O)c2ncn(COC(CO)CO)c2n1` [GCV, Ganciclovir], the “effect on parental (TK-negative) H1 cells” value in the data set with Parental H1 cells is “no effect”. In the data set on H1 hESCs [1] (1:1 ratio TK-negative:TK-positive), the “TK-negative cells that died when mixed with TK-positive cells” value is on record as “More than 80%”. Also, the “death of TK-negative cells when mixed with TK-positive cells” value with H1 hESCs [1] (1:10 ratio TK-negative:TK-positive) is given as “all died”. In addition, in data set [2], the “cytotoxicity to LP-TK (HSV1-ΔTK expressing) H1 hESCs” value is on record as “kills LP-TK cells; also recorded: Robust cytotoxic activity”.
Regarding “proaerolysin: a bacterial prototoxin; perforates the plasma membrane upon binding to GPI anchors on the cell surface”, the “sensitivity of H1 ΔPIGA hESCs after landing pad expressing hmPIGA at HPRT1” value in the data set with H1 hESCs [3] (LP-PIGA H1 hESCs) is “resensitized”. Besides, the “killing of parental H1 hESCs” value in the data set with H1 hESCs [3] (parental H1 hESCs) was “efficiently killed”. Further, in the data set on H1 hESCs [3] (ΔPIGA cells (PIGA deleted using CRISPR/Cas9)), the “sensitivity of ΔPIGA H1 hESCs” value is reported as “entirely resistant”.
